From patent publication US20250051526A1, “POLYMERS COMPRISING GLYCOLIPIDS AND METHODS FOR PRODUCING AND USING THE SAME” (priority 2021, published 2025)

Assay: binding preference from monorhamnolipid-metal conditional stability constants for 26 metals
Settings: metals of environmental concern (e.g., Cd, Pd, Hg) versus common soil and water cations
Excerpt: They are considered “green” molecules due to their natural products from bacteria (e.g., Pseudomonas aeruginosa), biodegradability, and low toxicity. The present inventors have experimentally determined the monorhamnolipid-metal conditional stability constants ([…]) for 26 metals of interest.

Substance: monorhamnolipid
- binding preference for metals of environmental concern over common soil and water cations: 6-8 orders of magnitude
